Measured values: the supplement of paper PMC12137928
Where a name gives a salt, the structure may show the parent alone.

Tested on: HCT116
Conditions: 72 h
Outline: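 Four-parameter Hill fits gave IC50 and maximal efficacy. The data were CellTiter-Glo luminescence readings in HCT116 cells, normalized so that vehicle was 0% and positive control was -100%, with pattern correction afterwards.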

Row | SMILES | IC50 cell viability (ICRF193 0 nM) | IC50 cell viability (ICRF193 200 nM)
1 | CN(C)CCC(c1ccccc1)c1ccccn1 (centres undefined) [Pheniramine maleate] | > 45.8 µM | > 45.8 µM
2 | O=S1(=O)OC(c2ccc(O)cc2)(c2ccc(O)cc2)c2ccccc21 [Phenol red] | > 45.8 µM | > 45.8 µM
3 | Oc1ccccc1 [Phenol] | > 45.8 µM | > 45.8 µM
4 | O=C1OC(c2ccc(O)cc2)(c2ccc(O)cc2)c2ccccc21 [Phenolphthalein] | > 45.8 µM | > 45.8 µM
5 | O=C(O)c1ccccc1C(c1ccc(O)cc1)c1ccc(O)cc1 [Phenolphthalin] | > 45.8 µM | > 45.8 µM
6 | c1ccc2c(c1)Nc1ccccc1S2 [Phenothiazine] | > 45.8 µM | > 45.8 µM
7 | CC(C)=CC1C(C(=O)OCc2cccc(Oc3ccccc3)c2)C1(C)C (centres undefined) [Phenothrin] | > 45.8 µM | > 45.8 µM
8 | O=C(O)COc1ccccc1 [Phenoxyacetic acid] | > 45.8 µM | > 45.8 µM
9 | CC(COc1ccccc1)N(CCCl)Cc1ccccc1 (centres undefined) [Phenoxybenzamine hydrochloride] | > 45.8 µM | > 45.8 µM
10 | NC(=O)OCCCc1ccccc1 [Phenprobamate] | > 45.8 µM | > 45.8 µM
11 | CCC(c1ccccc1)c1c(O)c2ccccc2oc1=O (centres undefined) [Phenprocoumon] | > 45.8 µM | > 45.8 µM
12 | CN1C(=O)CC(c2ccccc2)C1=O (centres undefined) [Phensuximide] | > 45.8 µM | > 45.8 µM
13 | Cc1ccc(N(CC2=NCCN2)c2cccc(O)c2)cc1 [Phentolamine mesilate] | > 45.8 µM | > 45.8 µM
14 | Nc1ccc(C(=O)Oc2ccccc2)c(O)c1 [Phenyl 4-aminosalicylate] | > 45.8 µM | > 45.8 µM
15 | O=C(CCCCCCCCC#CI)Oc1ccccc1 [Phenyl 11-iodo-10-undecynoate] | > 45.8 µM | > 45.8 µM
16 | O=C(Oc1ccccc1)c1ccccc1O [Phenyl salicylate] | > 45.8 µM | > 45.8 µM

Row | SMILES | IC50 cell viability (ICRF193 0 nM) | IC50 cell viability (ICRF193 200 nM)
17 | O=C(O)Cc1ccccc1 [Phenylacetic acid] | > 45.8 µM | > 45.8 µM
18 | CC(=O)N(CC(=O)N(C)C)c1ccccc1 [Phenylacetylglycine dimethylamide] | > 45.8 µM | > 45.8 µM
19 | CNC[C@H](O)c1cccc(O)c1 [Phenylephrine hydrochloride] | > 45.8 µM | > 45.8 µM
20 | CC(N)C(O)c1ccccc1 (centres undefined) [Phenylpropanolamine hydrochloride] | > 45.8 µM | > 45.8 µM
21 | CN(C)CCOc1ccccc1Cc1ccccc1 [Phenyltoloxamine citrate] | > 45.8 µM | > 45.8 µM
22 | O=C(CCc1ccc(O)cc1)c1c(O)cc(O)cc1O[C@@H]1O[C@H](CO)[C@@H](O)[C@H](O)[C@H]1O [Phlorizin] | > 45.8 µM | > 45.8 µM
23 | COP(=S)(OC)SCN1C(=O)c2ccccc2C1=O [Phosmet] | > 45.8 µM | > 45.8 µM
24 | C#CC(C)(CC)OC(=O)c1ccccc1C(=O)O (centres undefined) [Phthalofyne] | > 45.8 µM | > 45.8 µM
25 | CCCCCCCCCCCCCCCC(=O)O[C@@H]1CC(C)=C(/C=C/C(C)=C/C=C/C(C)=C/C=C/C=C(C)/C=C/C=C(C)/C=C/C2=C(C)C[C@@H](OC(=O)CCCCCCCCCCCCCCC)CC2(C)C)C(C)(C)C1 [Physalien] | > 45.8 µM | > 45.8 µM
26 | CNC(=O)Oc1ccc2c(c1)[C@]1(C)CCN(C)[C@@H]1N2C [Physostigmine] | > 45.8 µM | > 45.8 µM
27 | O=P(O)(O)O[C@H]1[C@H](OP(=O)(O)O)[C@@H](OP(=O)(O)O)[C@H](OP(=O)(O)O)[C@@H](OP(=O)(O)O)[C@H]1OP(=O)(O)O [Phytic acid] | > 45.8 µM | > 45.8 µM
28 | CC1=C(C/C=C(\C)CCC[C@H](C)CCC[C@H](C)CCCC(C)C)C(=O)c2ccccc2C1=O [Phytonadione] | > 45.8 µM | > 45.8 µM
29 | Nc1c(NC/C=C\COc2cc(CN3CCCCC3)ccn2)c(=O)c1=O [Pibutidine] | > 45.8 µM | > 45.8 µM
30 | O=C(O)c1ccccn1 [Picolinic acid] | > 45.8 µM | > 45.8 µM
31 | O=S(=O)(O)Oc1ccc(C(c2ccc(OS(=O)(=O)O)cc2)c2ccccn2)cc1 [Picosulfate sodium] | > 45.8 µM | > 45.8 µM
32 | CC[C@@H]1C(=O)OC[C@@H]1Cc1cncn1C [Pilocarpine] | > 45.8 µM | > 45.8 µM
